Data as given in US8993717B2, “Gadd45beta targeting agents” (Imperial Innovations Limited, priority 2009, dated 2015).
Like-named read-outs stand apart in the source and are kept apart here. Square brackets hold non-standard residues; d marks the D form. Peptide text beside a SMILES is read from it. * marks the point of attachment. Cbz = O=C(OCc1ccccc1)*

Columns and labels:
[1] = tested on: KMS11 multiple myeloma cells; experiment: [3H]thymidine incorporation assay in KMS11; type: cell-based, human; details: read-out: IC50 [H^3] thymidine incorporation assay in KMS11
Experimental: Cultures of multiple myeloma cells and treatments with Z-DTPs were carried out as described in Example 8 (see below). The effects of Z-DTPs on the survival/proliferation of multiple myeloma cells were evaluated by the use of [^3H]thymidine) incorporation assays, performed as also described in Example 8. The amount of cell proliferation measured with each of the Z-DTPs' concentrations used and with the untreated cultures (i.e. cultures incubated with medium alone), was expressed as counts per minute (c.p.m.)—which directly correlate with the extent of cell proliferation. All experiments were performed in triplicate.
In these latter assays, the effects of Z-DTPs, Ac-DTPs and Z-LTPs on the survival/proliferation of tumour cell lines was investigated by measuring DNA synthesis using standard tritiated thymidine ([^3H]thymidine; [^3H]-TdR) uptake assays. In the analyses shown, cells were incubated for 24, 72, 120 or 144 hrs at 37° C. in the presence or absence of control or bioactive tetrapeptides, as indicated, then subjected to an additional incubation for 18 hrs with [^3H]-TdR (0.037 MBq/well, equivalent to […]). Cells were subsequently harvested onto glass fibre filter mats using a 96-well plate automated cell harvester, after which scintillation fluid was added, and [^3H]thymidine incorporation measured by liquid scintillation spectroscopy on a beta counter. The results are expressed as the percentages of the counts per minute (c.p.m.) (directly correlating with the extent of cell proliferation) measured with tetrapeptide-treated cultures relative to the c.p.m. measured with the corresponding cultures incubated with medium alone (untreated cells). All experiments were performed in triplicate.

[2] = tested on: IKK/NF-κB, ERK and p38 pathways; experiment: Activation of IKK/NF-κB, ERK and p38 pathways in multiple myeloma cells; type: cell-based, human; details: data not shown
[3] = tested on: primary B and T lymphocytes; experiment: [3H]thymidine incorporation in purified primary B and T lymphocytes; type: cell-based, mouse; details: 100 μM, 72 hrs
Experimental: In order to determine the in vitro therapeutic index of Z-/mDTPs, viability and proliferation assays were also performed with primary untransformed cells of both human and mouse origin, after treatment with either 10 μM or 100 μM of Z-DTP1, Z-DTP2 and Z-DNC. To this end, bone marrow stromal cells (BMSCs) peripheral blood mononuclear cells (PBMNCs) and mesenkymal stem cells (MSCs) were purified from healthy individuals after Ficoll-Hypaque density separation, in accordance with the protocols reported in the reference by Piva R. et all 2008 Blood 111: 2765-2775). BMSCs, PBMNCs, and MSCs cells were then treated for the times indicated and with the peptide concentrations specified in FIGS. 15A and 15B. To further establish the specificity of the cytotoxic activity of Z-/mDTPs for cancer cells, we also used primary B and T lymphocytes purified from the spleen and lymph nodes of mice, respectively, essentially as described in the reference by Shirakawa et al 2010 Cell Mal immunology 1-12. B and T cells were then activated by simulation with 1 ng/mL of LPS for 16 hrs and subsequently treated with 100 μM of Z-DTP1, Z-DTP2 or Z-DNC for 72 hrs as shown in FIG. 15B.

Gadd45β/MKK7 interaction = biological target: T1, Gadd45β/MKK7 interaction (Homo sapiens, UniProt O14733); experiment: ELISA competition assay after 48-hr pre-incubation with human serum at 37° C.; type: binding; details: for stability after pre-incubation with human serum: result in words
T1 construct: The GST-fused full-length kinase was coated for 16 h at 4° C., at a concentration of 42 nM; made in house
T1 sequence (O14733 1-419): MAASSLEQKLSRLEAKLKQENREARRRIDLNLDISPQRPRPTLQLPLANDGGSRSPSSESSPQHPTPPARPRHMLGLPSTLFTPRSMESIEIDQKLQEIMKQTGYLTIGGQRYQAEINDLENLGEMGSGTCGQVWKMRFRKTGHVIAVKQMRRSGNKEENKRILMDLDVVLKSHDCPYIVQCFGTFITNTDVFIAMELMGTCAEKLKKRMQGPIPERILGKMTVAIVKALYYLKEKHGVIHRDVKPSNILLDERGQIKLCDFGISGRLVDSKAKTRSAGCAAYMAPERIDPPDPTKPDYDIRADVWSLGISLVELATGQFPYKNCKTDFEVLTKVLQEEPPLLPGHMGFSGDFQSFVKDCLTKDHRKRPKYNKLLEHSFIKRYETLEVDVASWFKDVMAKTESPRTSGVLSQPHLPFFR
Experimental: In FIG. 4, Gadd45β/MKK7 binding, competition ELISA assays were carried out to determine the stability of Z-conjugated D-tetrapeptides in human serum. […] ELISA were performed as described in FIG. 3 C. Briefly, 100 μl of 42 nM of recombinant GST-MKK7 in ELISA buffer (25 mM Tris pH 7.5, 150 mM NaCl, 1 mM DTT, 1 mM EDTA) were coated onto wells of 96-well plates by overnight incubation at 4° C. After blocking with 2% of NFDM for 1 hr at 37° C., plates were washed with TPBS, and then 21 nM of recombinant, biotinylated human (h)Gadd45β were added to the wells together with increasing concentrations of tetrapeptides which had either been subjected or had not been subjected to pre-incubation with human serum, as indicated. For a further discussion of the conditions used for the competition ELISA assay, the reader is directed to Tornatore et al 2008 JMB, 378: 97-111 and the references therein.

SMILES | IC50 ([1]; Day 1) [nM] | IC50 ([1]; Day 6, listed as mDTP3) [nM] | IC50 ([1]; Day 6) [nM] | effects on the IKK/NF-κB, ERK and p38 pathways [2] | IC50 ([1]; Day 1, listed as Z-DTP2) [nM] | IC50 ([1]; Day 3) [nM] | toxicity to primary B and T lymphocytes from mice [3] | IC50 (Gadd45β/MKK7 interaction) [nM] | stability after pre-incubation with human serum (Gadd45β/MKK7 interaction)
CC(=O)N[C@H](Cc1ccc(O)cc1)C(=O)N[C@H](CCCNC(=N)N)C(=O)N[C@H](Cc1ccccc1)C(N)=O [Compound 17, Ac-D-Tyr-D-Arg-D-Phe-NH2] (Ac-[dY]-[dR]-[dF]-NH2) | 1000 | 16 | 25 | no effects were observed |  |  |  |  | 
N=C(N)NCCC[C@@H](NC(=O)[C@@H](CCC(=O)O)NC(=O)[C@@H](Cc1ccc(O)cc1)NC(=O)OCc1ccccc1)C(=O)N[C@H](Cc1ccccc1)C(N)=O [Compound 9, Z-D-Tyr-D-Glu-D-Arg-D-Phe-NH2] (Cbz-[dY][dE][dR][dF]-NH2) | 2900 |  | 66 |  | 2880 | 25.7 | no toxicity | 0.18 | completely stable
NC(=O)[C@@H](Cc1ccccc1)NC(=O)[C@@H](Cc1c[nH]cn1)NC(=O)[C@@H](CC(=O)O)NC(=O)[C@@H](Cc1ccc(O)cc1)NC(=O)OCc1ccccc1 [Compound 1, Z-Tyr-Asp-His-Phe-NH2] (Cbz-[dY][dD][dH][dF]-NH2) |  |  |  | no effects were observed |  |  | no toxicity | 0.19 | completely stable
